Test results published in patent publication US6664400B2 (dated 2003).

melting point: 168 to 170 °C
Structure (SMILES): O=C1[C@H]2C[C@H](F)CN2C(=O)N1c1cc(NS(=O)(=O)CCl)c(Cl)cc1F
